Like-named read-outs stand apart in the source and are kept apart here. Primed or numbered codes have the meaning given here. Where no end group is shown, it is not given here. [ ]: non-standard residue; d: D form. PEG8′ = non-peptide PEG linker of 8 ethylene glycol units
Assays:
[1] = test system: mice; assay: Comparative insulin tolerance test in mice; assay type: in vivo; conditions: result in words
Description: The activity of the compounds in vivo was also tested by administering the compounds to mice. Food was removed four hours prior to administering peptide to normal mice and withheld for the duration of the study. Glucose was measured just prior to administration of test compounds and at 1, 2, 3, 6 and 8, 12, 16, 20 and 24 hours after administration. […] FIGS. 29B and 29C provide data on blood glucose concentrations over 8 hours after administration of the listed analogs.
The compounds were tested at two different concentrations (27 nmol/kg and 90nmol/kg).
This single chain analog comprises a 20 kDa PEG linked to the side chain of the single lysine residue in the linking moiety (PEG8-K-PEG4) that joins the A chain and the B chain. […] FIGS. 33C and 33D show the blood glucose AUC24 hrs in mice administered Detemir and MIU-56, respectively.

[2] = target: T1, human IGF-1 receptor (Homo sapiens, UniProt P08069); assay: IGF-1 receptor competition binding assay (scintillation proximity); conditions: Table 9
T1 construct: expressed in transfected cells; plasma membrane fragments

[3] = target: T2, human insulin receptor (Homo sapiens, UniProt P06213); assay: Insulin receptor competition binding assay (scintillation proximity)
T2 construct: expressed in transfected cells; plasma membrane fragments

[4] = target: IR-B (Homo sapiens, UniProt P06213); assay: In vitro activity at IR-B relative to native insulin; assay type: cell-based; conditions: for % Insulin Activity IR-B: Table 17
[5] = target: IGF-1 R (Homo sapiens, UniProt P08069); assay: In vitro activity at IGF-1 R relative to native insulin; assay type: cell-based; conditions: for % Insulin Activity IGF-1 R: Table 17
[6] = target: IR-A (Homo sapiens, UniProt P06213); assay: In vitro activity at IR-A relative to native insulin; assay type: cell-based

B^1(H5,H10,Y16,L17)25a: A^1(H8,rEC16-K14,N18,N21) [MIU-41]
ability to reduce and sustain low blood glucose [1]: more basal and sustained lowered glucose levels relative to native insulin

B^1(C16-K0,H5,H10,Y16,L17)25a: A^1(N18,N21) [MIU-36]
ability to reduce and sustain low blood glucose [1]: more basal and sustained lowered glucose levels relative to native insulin

CC[C@H](C)[C@H](NC(=O)CN)C(=O)N[C@H](C(=O)N[C@@H](CC(=O)O)C(=O)N[C@@H](CCC(=O)O)C(=O)N[C@H]1CSSC[C@@H]2NC(=O)[C@H](CO)NC(=O)[C@H](CCCNC(=N)N)NC(=O)[C@H](Cc3ccccc3)NC(=O)[C@H](CSSC[C@H](NC(=O)[C@H](CC(C)C)NC(=O)[C@H](Cc3c[nH]cn3)NC(=O)[C@H](CCC(N)=O)NC(=O)[C@H](CC(N)=O)NC(=O)[C@@H](NC(=O)[C@@H](N)Cc3ccccc3)C(C)C)C(=O)NCC(=O)N[C@@H](C)C(=O)N[C@@H](CCC(=O)O)C(=O)N[C@@H](CC(C)C)C(=O)N[C@@H](C(C)C)C(=O)N[C@@H](CC(=O)O)C(=O)N[C@@H](C)C(=O)N[C@@H](CC(C)C)C(=O)N[C@@H](Cc3ccc(O)cc3)C(=O)N[C@@H](CC(C)C)C(=O)N[C@@H](C(C)C)C(=O)N[C@H](C(=O)NCC(=O)N[C@@H](CC(=O)O)C(=O)N[C@@H](CCCNC(=N)N)C(=O)NCC(=O)N[C@@H](Cc3ccccc3)C(=O)N[C@@H](Cc3ccc(O)cc3)C(=O)N[C@@H](Cc3ccccc3)C(=O)N[C@@H](CC(N)=O)C(=O)N[C@@H](CCCCN)C(=O)N3CCC[C@H]3C(=O)N[C@H](C(N)=O)[C@@H](C)O)CSSC[C@@H](C(=O)N[C@@H](C)C(N)=O)NC(=O)[C@H](Cc3ccc(O)cc3)NC(=O)[C@H](CCSC)NC(=O)[C@H](CCC(=O)O)NC(=O)[C@H](CC(C)C)NC(=O)[C@H](CCCNC(=N)N)NC(=O)[C@H](CCCNC(=N)N)NC(=O)[C@H](CC(C)C)NC(=O)[C@H](CC(=O)O)NC2=O)NC1=O)C(C)C [IGF-1 A: In B (1-5)-IGF-1 B (YL) (6-30)]
IGF-1 Receptor % IGF-1 (in test) [2]: 3.6%
Insulin Receptor % insulin (in test) ([3]; Table 9): 62.4%
Insulin Receptor % native insulin activity (0.6 nM) ([3]; Table 9): 193.5%

B^1(A5H10Y16L17)25-C^1-A^1(H8N18N21) [Ala, B5]
IR-B ([4]; Table 18): 5.7%
IGF-1 R ([5]; Table 18): 2.5%

B^1(H5,H10,Y16,L17,C16rE-K22)25a: A^1(N18,N21) [MIU-37]
ability to reduce and sustain low blood glucose [1]: more basal and sustained lowered glucose levels relative to native insulin

B1, A14-10K B^1(H5, 10Y16L17R29)30-C^1des9-12-A^1(H8, K14, N18, 21) (GPEHLCGAHLVDALYLVCGDRGFYFNKRTGYGSSSRRGIVDECCHRSCDLKRLENYCN) [MIU-79]
IR-B ([4]; Table 19): 0.2%
IR-A ([6]; Table 19): 1.7%

C8-PEG20K B^1(H5, Y16, L17)25-PEG8-K-PEG4-A^1(N18, N21) (GPEHLCGAELVDALYLVCGDRGFY[PEG8′]KGIVDECCFRSCDLRRLENYCN; not fully specified (some residues, bridges); ends and bridges not checked) [MIU-56]
ability to reduce and sustain low blood glucose [1]: sustained duration of action for 24 hours

B^1(H5,H10,Y16,L17)25-C^1-A^1(H8,N18,N21) (GPEHLCGAHLVDALYLVCGDRGFYGYGSSSRRAPQTGIVDECCHRSCDLRRLENYCN) [MIU-35]
IR-B ([4]; Table 18): 17.4%
% Insulin Activity IGF-1 R [5]: 3.2%
IGF-1 R ([5]; Table 18): 3.2%
IR-A ([6]; Table 18): 61.4%

B^1(H5, 10Y16L17A24)25-C^1-A^1(H8N18, N21) [Ala, B24]
IR-B [4]: 0.4%
IGF-1 R [5]: 0.3%
IR-A [6]: 0.1%

B^1(H5, 10Y16L17R29)30-C^1des9-12-A^1(H8, K14, N18, 21) (GPEHLCGAHLVDALYLVCGDRGFYFNKRTGYGSSSRRGIVDECCHRSCDLKRLENYCN) [DP8Mut3KA14]
IR-B ([4]; Table 19): 12.6%
IR-A ([6]; Table 19): 132.2%

B^1(H5, 10Y16L17K29)29-A^1(H8, N18, 21) [DP3(SC)]
IR-A ([6]; Table 19): 0.03%

B1-20K B^1(H5, 10Y16L17K29)29: A^1(H8N18, 21) [MIU-78]
IR-B [4]: 3.2%
IR-A [6]: 8.2%

B^1(H5, 10Y16L17)25-C^1-A^1(T8N18, 21) (GPEHLCGAHLVDALYLVCGDRGFYGYGSSSRRAPQTGIVDECCTRSCDLRRLENYCN) [Thr, A8]
IR-B ([4]; Table 18): 8.4%
IGF-1 R ([5]; Table 18): 3.7%
IR-A ([6]; Table 18): 20.4%

CC[C@H](C)[C@H](NC(=O)CNC(=O)[C@@H]1CCCN1C(=O)[C@H](C)N)C(=O)N[C@H](C(=O)N[C@@H](CC(=O)O)C(=O)N[C@@H](CCC(=O)O)C(=O)N[C@H]1CSSC[C@@H]2NC(=O)[C@H](CO)NC(=O)[C@H](CCCNC(=N)N)NC(=O)[C@H](Cc3ccccc3)NC(=O)[C@H](CSSC[C@H](NC(=O)[C@H](CC(C)C)NC(=O)[C@@H](NC(=O)[C@H](CCC(=O)O)NC(=O)[C@@H]3CCCN3C(=O)CN)[C@@H](C)O)C(=O)NCC(=O)N[C@@H](C)C(=O)N[C@@H](CCC(=O)O)C(=O)N[C@@H](CC(C)C)C(=O)N[C@@H](C(C)C)C(=O)N[C@@H](CC(=O)O)C(=O)N[C@@H](C)C(=O)N[C@@H](CC(C)C)C(=O)N[C@@H](Cc3ccc(O)cc3)C(=O)N[C@@H](CC(C)C)C(=O)N[C@@H](C(C)C)C(=O)N[C@H](C(=O)NCC(=O)N[C@@H](CC(=O)O)C(=O)N[C@@H](CCCNC(=N)N)C(=O)NCC(=O)N[C@@H](Cc3ccccc3)C(=O)N[C@@H](Cc3ccc(O)cc3)C(=O)N[C@@H](Cc3ccccc3)C(=O)N[C@@H](CC(N)=O)C(=O)N[C@@H](CCCCN)C(=O)N3CCC[C@H]3C(=O)N[C@H](C(N)=O)[C@@H](C)O)CSSC[C@@H](C(=O)N[C@@H](C)C(N)=O)NC(=O)[C@H](Cc3ccc(O)cc3)NC(=O)[C@H](CCSC)NC(=O)[C@H](CCC(=O)O)NC(=O)[C@H](CC(C)C)NC(=O)[C@H](CCCNC(=N)N)NC(=O)[C@H](CCCNC(=N)N)NC(=O)[C@H](CC(C)C)NC(=O)[C@H](CC(=O)O)NC2=O)NC1=O)C(C)C [IGF1(Y^B16L^B17)(AlaPro)^A-1, 0]
% of Insulin Activity ([3]; Table 8): 37.12%

GE5W-B^1(A5H10Y16L17)25-C^1-A^1(H8N18N21) [GE5W-Ala, B5]
IR-B ([4]; Table 18): 2.3%
IGF-1 R ([5]; Table 18): 0.3%
IR-A ([6]; Table 18): 8.6%

B^1(H5,Y16,L17, K22)25-C^1(K8)-A^1(N18,21) (GPEHLCGAELVDALYLVCGDKGFYGYGSSSRKAPQTGIVDECCFRSCDLRRLENYCN) [MIU-68, two 10K PEG chains, at the N-terminus and at amino acid B22]
% Insulin Activity IR-B [4]: 0.1%
% Insulin Activity IGF-1 R [5]: <0.1%

B1, A14-10K B^1(H5, 10Y16L17R29)29: A^1(H8K14N18, 21) (chain 1 GPEHLCGAHLVDALYLVCGDRGFYFNKR; chain 2 GIVDECCHRSCDLKRLENYCN) [di-10K-TC]
IR-B ([4]; Table 19): 2.1%
IR-A ([6]; Table 19): 6.4%

B^1(H5,Y16,L17)25-C^1(K8)-A^1(K14, N18,21) (GPEHLCGAELVDALYLVCGDRGFYGYGSSSRKAPQTGIVDECCFRSCDLKRLENYCN) [MIU-69, two 10K PEG chains, at the N-terminus and at amino acid A14]
% Insulin Activity IGF-1 R [5]: <0.1%

B^1(H5,Y16,L17)25-C^1(K8)-A^1(N18,21) (GPEHLCGAELVDALYLVCGDRGFYGYGSSSRKAPQTGIVDECCFRSCDLRRLENYCN) [MIU-67, two 10K PEG chains, at the N-terminus and at position C8]
% Insulin Activity IR-B [4]: 0.1%
% Insulin Activity IGF-1 R [5]: <0.1%
ability to reduce and sustain low blood glucose [1]: roughly equivalent to MIU-59 administered at 40 nmol/kg

B1-20K B^1(H5, 10Y16L17K29)29-A^1(H8N18, 21) [MIU-77]
IR-A [6]: 0.1%
activity at the insulin type-A receptor on addition of a 20 kDa PEG [6]: ~100 fold

B^1(H5, 10Y16L17K29)29: A^1(H8, N18, 21) [DP3(TC)]
IR-B ([4]; Table 19): 33.1%
IR-A ([6]; Table 19): 159.8%

B^1(H5, 10Y16L17R29)30-C^1des9-12-A^1(H8, N18, 21) (GPEHLCGAHLVDALYLVCGDRGFYFNKRTGYGSSSRRGIVDECCHRSCDLRRLENYCN) [MIU-43]
IR-B ([4]; Table 19): 16.7%
IGF-1 R ([5]; Table 19): 14.2%
IR-A ([6]; Table 19): 97.5%

B1: GE5W-B^1(H5, 10Y16L17)25-C^1-A^1(A1H8N18, 21) (peptide)
chain: GEEEEEWGPEHLCGAHLVDALYLVCGDRGFYGYGSSSRRAPQTAIVDECCHRSCDLRRLENYCN
IR-B ([4]; Table 18): 0.7%
IGF-1 R ([5]; Table 18): 0.5%
IR-A ([6]; Table 18): 2.1%

Reference: US9458220B2 (priority 2010, dated 2016)
